How the values were obtained:
[1] = target: 5-hydroxytryptamine receptor 2A (Rattus norvegicus, UniProt P14842)
D(1A) dopamine receptor = D(1A) dopamine receptor (Rattus norvegicus, UniProt P18901)
[2] = target: T1, Alpha-2C adrenergic receptor (Rattus norvegicus, UniProt P22086)
T1 sequence (P22086 whole entry): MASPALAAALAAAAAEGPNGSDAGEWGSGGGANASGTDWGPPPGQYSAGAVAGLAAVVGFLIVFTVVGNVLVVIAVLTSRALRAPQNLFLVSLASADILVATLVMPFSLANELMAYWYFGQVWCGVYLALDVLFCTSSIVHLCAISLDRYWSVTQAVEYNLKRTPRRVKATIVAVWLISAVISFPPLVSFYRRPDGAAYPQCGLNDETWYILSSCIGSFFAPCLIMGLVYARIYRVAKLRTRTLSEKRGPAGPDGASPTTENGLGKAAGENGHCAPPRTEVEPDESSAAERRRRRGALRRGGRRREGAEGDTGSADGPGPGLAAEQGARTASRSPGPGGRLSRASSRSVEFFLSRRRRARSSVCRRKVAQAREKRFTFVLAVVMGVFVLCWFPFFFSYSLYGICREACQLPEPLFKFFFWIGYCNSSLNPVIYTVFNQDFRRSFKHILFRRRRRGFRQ

D(1B) dopamine receptor = D(1B) dopamine receptor (Homo sapiens, UniProt P21918)
Sequence of D(1B) dopamine receptor (P21918 whole entry): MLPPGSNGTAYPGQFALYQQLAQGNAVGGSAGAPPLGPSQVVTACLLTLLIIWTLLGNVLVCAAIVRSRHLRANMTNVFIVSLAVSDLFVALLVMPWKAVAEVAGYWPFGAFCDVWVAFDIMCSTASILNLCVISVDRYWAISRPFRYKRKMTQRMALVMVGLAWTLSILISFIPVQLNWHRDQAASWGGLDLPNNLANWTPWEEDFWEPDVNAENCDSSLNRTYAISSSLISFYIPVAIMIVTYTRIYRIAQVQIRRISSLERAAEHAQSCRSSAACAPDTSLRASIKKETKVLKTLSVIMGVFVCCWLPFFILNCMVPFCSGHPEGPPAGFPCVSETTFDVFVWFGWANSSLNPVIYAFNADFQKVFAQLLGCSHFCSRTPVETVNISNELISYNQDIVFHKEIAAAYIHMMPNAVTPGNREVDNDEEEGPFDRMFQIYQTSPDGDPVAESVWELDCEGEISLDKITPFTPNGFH

D(2) dopamine receptor = D(2) dopamine receptor (Rattus norvegicus, UniProt P61169)
Sequence of D(2) dopamine receptor (P61169 whole entry): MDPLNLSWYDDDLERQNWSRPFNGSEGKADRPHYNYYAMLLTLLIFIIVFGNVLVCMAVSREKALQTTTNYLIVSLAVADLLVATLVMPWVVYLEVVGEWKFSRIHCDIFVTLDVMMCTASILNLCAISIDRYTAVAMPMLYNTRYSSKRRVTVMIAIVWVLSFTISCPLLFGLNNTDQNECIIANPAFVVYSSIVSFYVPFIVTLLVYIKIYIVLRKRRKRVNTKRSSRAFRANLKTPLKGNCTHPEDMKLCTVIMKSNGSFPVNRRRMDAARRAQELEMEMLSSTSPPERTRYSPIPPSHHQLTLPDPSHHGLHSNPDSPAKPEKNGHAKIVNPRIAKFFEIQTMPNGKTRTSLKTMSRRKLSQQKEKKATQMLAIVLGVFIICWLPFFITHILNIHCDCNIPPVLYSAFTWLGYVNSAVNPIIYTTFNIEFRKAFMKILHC

[3] = target: T2, Solute carrier family 22 member 2 (Rattus norvegicus, UniProt Q9R0W2)
T2 sequence (Q9R0W2 whole entry): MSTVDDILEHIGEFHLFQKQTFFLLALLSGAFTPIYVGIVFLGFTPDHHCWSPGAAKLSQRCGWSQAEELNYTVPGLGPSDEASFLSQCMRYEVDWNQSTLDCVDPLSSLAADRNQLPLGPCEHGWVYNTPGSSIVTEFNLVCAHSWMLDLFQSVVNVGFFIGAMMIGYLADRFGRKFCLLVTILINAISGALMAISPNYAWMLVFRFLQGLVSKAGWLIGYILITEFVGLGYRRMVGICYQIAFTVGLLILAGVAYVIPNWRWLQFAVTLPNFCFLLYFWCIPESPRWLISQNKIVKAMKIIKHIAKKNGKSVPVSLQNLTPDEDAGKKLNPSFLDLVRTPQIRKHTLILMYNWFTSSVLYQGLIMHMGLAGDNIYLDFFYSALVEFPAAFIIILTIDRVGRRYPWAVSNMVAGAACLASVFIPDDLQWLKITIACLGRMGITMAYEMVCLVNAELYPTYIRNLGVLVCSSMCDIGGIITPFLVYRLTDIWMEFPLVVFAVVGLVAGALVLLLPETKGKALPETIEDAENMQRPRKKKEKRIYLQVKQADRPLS

Sequence of 5-hydroxytryptamine receptor 2A (P14842 whole entry): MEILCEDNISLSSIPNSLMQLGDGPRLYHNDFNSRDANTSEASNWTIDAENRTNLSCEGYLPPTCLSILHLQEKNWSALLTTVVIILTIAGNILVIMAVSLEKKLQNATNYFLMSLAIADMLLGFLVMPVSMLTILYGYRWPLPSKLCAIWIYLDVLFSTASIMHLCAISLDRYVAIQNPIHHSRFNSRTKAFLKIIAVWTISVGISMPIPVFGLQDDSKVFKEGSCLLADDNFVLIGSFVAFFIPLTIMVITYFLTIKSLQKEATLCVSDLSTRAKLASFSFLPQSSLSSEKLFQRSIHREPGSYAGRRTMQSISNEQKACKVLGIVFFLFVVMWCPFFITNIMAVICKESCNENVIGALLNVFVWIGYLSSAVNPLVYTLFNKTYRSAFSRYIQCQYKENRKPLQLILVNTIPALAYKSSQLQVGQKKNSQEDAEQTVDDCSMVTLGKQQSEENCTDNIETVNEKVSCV
Sequence of D(1A) dopamine receptor (P18901 whole entry): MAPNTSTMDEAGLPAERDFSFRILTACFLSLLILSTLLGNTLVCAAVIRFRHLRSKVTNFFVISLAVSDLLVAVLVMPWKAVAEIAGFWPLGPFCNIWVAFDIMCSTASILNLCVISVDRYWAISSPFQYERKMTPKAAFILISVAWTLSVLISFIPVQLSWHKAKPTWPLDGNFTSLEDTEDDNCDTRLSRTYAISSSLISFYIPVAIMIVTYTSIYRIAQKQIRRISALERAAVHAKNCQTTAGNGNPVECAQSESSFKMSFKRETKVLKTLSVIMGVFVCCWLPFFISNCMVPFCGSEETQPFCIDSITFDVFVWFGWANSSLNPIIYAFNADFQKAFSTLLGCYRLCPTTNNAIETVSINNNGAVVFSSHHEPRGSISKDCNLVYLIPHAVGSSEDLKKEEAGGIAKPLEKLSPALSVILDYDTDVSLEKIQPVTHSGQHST

Compound	Ki [1] [µM]	Ki (D(1A) dopamine receptor) [µM]	Ki [2] [µM]	Ki (D(1B) dopamine receptor) [µM]	Ki (D(2) dopamine receptor) [µM]	Ki [3] [µM]
Cc1ccccc1C1CNCCc2c1cc(O)c(O)c2Br (stereo not drawn) [MCL-216]	0.398	0.00181	0.133	0.00195	0.0195	
C=CCN1CCc2c(cc(O)c(O)c2Br)C(c2ccccc2C(F)(F)F)C1 (stereo not drawn) [MCL-217]	> 10	> 10	> 10		> 10	
Cc1cccc(C2CNCCc3c2cc(O)c(O)c3Br)c1 (stereo not drawn) [MCL-205]	1.29	0.00441	0.338	0.0137	1.07	
Cc1cccc([C@H]2CN(C)CCc3c2cc(O)c(O)c3Cl)c1 [MCL-201]		0.0213	0.632		2.14	
Cc1cccc([C@@H]2CN(C)CCc3c2cc(O)c(O)c3Cl)c1 [MCL-202]	0.0886	0.00049		0.00153	0.515	3
C=CCN1CCc2c(cc(O)c(O)c2Cl)C(c2ccccc2)C1 (racemic) [SKF 82958]	1.61		0.558			
Oc1cc2c(cc1O)C(c1ccccc1)CNCC2 (racemic) [(+/-)-SKF-38393]	> 10		0.248			
Cc1cccc([C@@H]2CN(C)CCc3c2cc(O)c(O)c3Br)c1 [MCL-203]	0.224	0.00019	0.461	0.00247	0.44	
Cc1cccc([C@H]2CN(C)CCc3c2cc(O)c(O)c3Cl)c1	0.266	0.00118	0.295	0.00756	0.92	
Cc1cccc(C2CNCCc3c2cc(O)c(O)c3Cl)c1 (stereo not drawn) [MCL-209]	1.2	0.0006	0.24	0.00088	5	
C=CCN1CCc2c(cc(O)c(O)c2Br)C(c2cccc(C)c2)C1 (stereo not drawn) [MCL-204]	0.598	0.00011	0.709	0.012	0.0838	
C=CCN1CCc2cc(O)c(O)cc2C(c2ccccc2)C1 (stereo not drawn)	3		0.632			
CN1CCc2c(cc(O)c(O)c2Br)[C@H](c2cccc(C(F)(F)F)c2)C1 [MCL-211]	0.0689	0.00866	0.365		1.05	
Cc1ccc(C2CN(C)CCc3c2cc(O)c(O)c3Br)cc1 (stereo not drawn) [MCL-212]	0.124	0.0193	0.493	0.00436	1.03	
Cc1ccccc1C1CN(C)CCc2c1cc(O)c(O)c2Cl (stereo not drawn) [NSC_0]	0.0706	0.00046	0.0666	0.00232		
Oc1cc2c(c(Br)c1O)CCNC[C@H]2c1cccc(C(F)(F)F)c1 [MCL-218]	0.992	1.24	0.776		> 10	
Cc1ccc(C2CN(C)CCc3c2cc(O)c(O)c3Cl)cc1 (stereo not drawn) [MCL-206]	0.147	0.00193	0.25	0.00396	0.362	
Cc1cccc([C@@H]2CN(C)CCc3c(Cl)cc(O)cc32)c1 [MCL-230A]		> 10				
C=CCN1CCc2c(cc(O)c(O)c2Br)C(c2ccc(C)cc2)C1 (stereo not drawn) [MCL-213]	0.977	0.128	1.09		1.7	
C=CCN1CCc2c(cc(O)c(O)c2Br)C(c2ccccc2C)C1 (stereo not drawn) [MCL-215]	0.742	0.0371	0.414		0.239	
Oc1cc2c(c(Cl)c1O)CCNCC2c1ccccc1 (stereo not drawn) [NSC_1218]	0.995		0.509			
Cc1ccccc1C1CN(C)CCc2c1cc(O)c(O)c2Br (stereo not drawn) [MCL-214]	0.0458	0.0011	0.186	0.00342	0.409	
C=CCN1CCc2c(cc(O)c(O)c2Cl)C(c2cccc(C)c2)C1 (stereo not drawn) [MCL-210]	0.995	0.00052	0.877	0.00994	0.119	
CN1CCc2cc(Cl)c(O)cc2C(c2ccccc2)C1 (stereo not drawn) [NSC_5018]	0.0108		0.208			
